“And” between values parts separate entries of the source, which are not always exact repeats. Equal values may be shown once. Read-outs that look alike come from different tables or passages of the source.
Test system: Tetrabenazine-Induced Ptosis
Experiment: Blockade of Tetrabenazine-Induced Ptosis in Mice (antidepressant activity)
Type: in vivo, mice (ICR-DUB strain)
Settings: female mice; for ED50: Mus musculus
Protocol: Thirty minutes later the presence or absence of complete eyelid closure (ptosis) is assessed in each animal. For compounds which produced blockage of ptosis in all animals, and ED50 value is obtained using a minimum of three geometrically spaced dosages with five mice/dose.

[1] = ip, read-out: ED50 (95% confidence limits), IP, 30 min before tetrabenazine 32 mg/kg IP, Table 1 reference agents, probit analysis
[2] = IP, 30 min before tetrabenazine 32 mg/kg IP, test compounds in text, read-out: ED50 (confidence limits)

| SMILES | ED50 [1] [mg/kg] | ED50 [2] [mg/kg] | ED50 (95% confidence limits) (IP, 30 min before tetrabenazine 32 mg/kg IP, Table 1 reference agents, probit analysis) |
| --- | --- | --- | --- |
| CCOc1ccccc1OCC1CNCCO1 (centres unmarked) [viloxazine] | 1.5 | – | – |
| CC(C)N1CC(=C(c2ccccc2)c2ccccc2)C1.O=C(O)C(=O)O [1-isopropyl-3-diphenylmethyleneazetidine oxalate] | – | 2.18 | – |
| CN(C)CCCN1c2ccccc2CCc2ccccc21 [imipramine] | 0.3 | – | 0.4 (0.2-0.9) mg/kg and 0.5 (0.2-1.2) mg/kg |
| CN1CC(=C(c2ccccc2)c2ccccc2)C1 [1-methyl-3-diphenylmethyleneazetidine] | – | 1.48 | – |
